Here are results for four compounds from patent publication US9661854B2, “Molecules having pesticidal utility, and intermediates, compositions, and processes, related thereto” (Dow AgroSciences LLC, priority 2015, dated 2017).

What all share (assay type): in vivo
The test system of data set [1] is Beet Armyworm (Spodoptera exigua, LAPHEG). The experiment in a line: Bioassay on Beet Armyworm (BAW), 128-well diet tray assay. Conditions: 168 h, 50 μg/cm^2 on artificial diet, second instar larvae, 25° C., five to seven days, average of eight wells, read-out: BAW % Control (or Mortality) rating. In outline: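 Second-instar larvae, one to five per well, fed artificial diet surface-treated with 50 μg/cm^2 test molecule in 90:10 acetone-water, dried before infestation; eight wells per molecule. Held at 25 °C, 14:10 light-dark for five to seven days; percent mortality averaged over wells.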

For data set [2], the system named is Cabbage Looper (Trichoplusia ni, TRIPNI). The experiment in a line: Bioassay on Cabbage Looper (CL), 128-well diet tray assay. The note with it: 168 h, 50 μg/cm^2 on artificial diet, second instar larvae, 25° C., five to seven days, average of eight wells, read-out: CL % Control (or Mortality) rating. In short, it runs like this:
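Second-instar larvae (one to five per well) placed on artificial diet treated with 50 μg/cm^2 test molecule in 90:10 acetone-water, dried; eight wells per molecule. Held at 25° C., 14:10 light-dark, for five to seven days. Percent mortality scored per well and averaged over the eight wells.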

Data set [3] concerns Yellow Fever Mosquito (Aedes aegypti, AEDSAE). Conditions: about 1 day-old larvae, master plate 4000 ppm solution diluted, room temperature, scored after 3 days. As to the method: Example B: Bioassays on Yellow Fever Mosquito (Aedes aegypti, AEDSAE (“YFM”)
Certain molecules disclosed in this document were tested against YFM using procedures described in the following paragraph. In the reporting of the results, the “YFM Rating Table” was used (See Table Section).
Master plates containing 400 μg of a molecule dissolved in 100 μL of dimethyl sulfoxide (DMSO) (equivalent to a 4000 ppm solution) are used. A master plate of assembled molecules contains 15 μL per well. To this plate, 135 μL of a 90:10 water/acetone mixture is added to each well. A robot (Biomek® NXP Laboratory Automation Workstation) is programmed to dispense 15 μL aspirations from the master plate into an empty 96-well shallow plate (“daughter” plate). There are 6 reps (“daughter” plates) created per master. The created “daughter” plates are then immediately infested with YFM larvae.
The day before plates are to be treated, mosquito eggs are placed in Millipore water containing liver powder to begin hatching (4 g into 400 mL). After the “daughter” plates are created using the robot, they are infested with 220 μL of the liver powder/larval mosquito mixture (about 1 day-old larvae). After plates are infested with mosquito larvae, a non-evaporative lid is used to cover the plate to reduce drying. Plates are held at room temperature for 3 days prior to grading. After 3 days, each well is observed and scored based on mortality. The results are indicated in the table entitled “Table ABC: Biological Results” (See Table Section).

Usually mortality stands for the percentage killed. Take `Cc1ccc(C(C)C)c(N2C(=O)CS/C2=N\C(=O)Nc2ccc(/C=C/c3ncn(-c4ccc(OC(F)(F)F)cc4)n3)cc2)c1` [F38, 1-((Z)-3-(2-isopropyl-5-methylphenyl)-4-oxothiazolidin-2-ylidene)-3-(4-((E)-2-(1-(4-(trifluoromethoxy)phenyl)-1H-1,2,4-triazol-3-yl)vinyl)phenyl)urea]: the mortality at 50 µg/cm2 in data set [1] and in data set [2] was 50 to 100% in each case. In data set [3], the “YFM % Control (or Mortality) rating” value is recorded as “A (80-100)”.

Consider `CCC(C)Oc1ccc(C)cc1N1C(=O)CS/C1=N\C(=O)Nc1ccc(/C=C/c2ncn(-c3ccc(OC(F)(F)F)cc3)n2)cc1F` (stereo not drawn) [F60, 1-((Z)-3-(2-(sec-Butoxy)-5-methylphenyl)-4-oxothiazolidin-2-ylidene)-3-(2-fluoro-4-((E)-2-(1-(4-(trifluoromethoxy)phenyl)-1H-1,2,4-triazol-3-yl)vinyl)phenyl)urea], for which the mortality at 50 µg/cm2 in data set [1] and in data set [2] was 50 to 100% each time. Besides, in data set [3], the “YFM % Control (or Mortality) rating” value is recorded as “A (80-100)”.

On to `CC(C)c1ccccc1N1C(=O)CS/C1=N\C(=O)Nc1ccc(CCc2ncn(-c3ccc(C(F)(F)F)cc3C#N)n2)cc1` [F76, (Z)-1-(4-(2-(1-(2-cyano-4-(trifluoromethyl)phenyl)-1H-1,2,4-triazol-3-yl)ethyl)phenyl)-3-(3-(2-isopropylphenyl)-4-oxothiazolidin-2-ylidene)urea], for which the mortality at 50 µg/cm2 in data set [1] and in data set [2] was 50 to 100% in each case. Further, in data set [3], the “YFM % Control (or Mortality) rating” value was “A (80-100)”.

`CC(C)c1ccccc1N1C(=O)CS/C1=N\C(=O)Nc1ccc(CCc2ncn(-c3ccc(Br)cc3)n2)cc1` [F77, (Z)-1-(4-(2-(1-(4-Bromophenyl)-1H-1,2,4-triazol-3-yl)ethyl)phenyl)-3-(3-(2-isopropylphenyl)-4-oxothiazolidin-2-ylidene)urea]: the mortality at 50 µg/cm2 in data set [1] and in data set [2] was 50 to 100% in each case. The “YFM % Control (or Mortality) rating” value in data set [3] was “A (80-100)”.
